Assay results: ChEMBL document CHEMBL3872286, “Identification and Mechanistic Evaluation of Hemozoin-Inhibiting Triarylimidazoles Active against Plasmodium falciparum” (ACS Med Chem Lett, 2017)
Calls of active or inactive are those of the source. The calls are words filed in the database; no cut-off is given here.

How the values were obtained:
[1] = Inhibition of beta-hematin formation incubated for 5 to 6 hrs by NP40 detergent-mediated assay
Plasmodium falciparum [2] = assay: Antimalarial activity against chloroquine-sensitive asexual erythrocyte stage of Plasmodium falciparum D6 infected in human type O+ erythrocytes assessed as growth inhibition incubated for 48 hrs by NBT dye based LDH release assay; format: functional, cell-based; settings: D6, 48 h
Plasmodium falciparum [3] = assay: Antimalarial activity against chloroquine-sensitive asexual erythrocyte stage of Plasmodium falciparum NF54 infected in human type O+ erythrocytes assessed as growth inhibition incubated for 48 hrs by NBT dye based LDH release assay; format: functional, cell-based; settings: NF54, 48 h
Plasmodium falciparum [4] = assay: Inhibition of beta-hematin formation in human erythrocytes infected with chloroquine-sensitive Plasmodium falciparum D6 assessed as increase in intracellular free heme level by SYBR Green I fluorescence assay; parameters: scale not given: the % may be the effect or the level left
Plasmodium falciparum [5] = assay: Antimalarial activity against chloroquine-sensitive Plasmodium falciparum D6 infected in human erythrocytes assessed as inhibition of beta-hematin formation by measuring increase in intracellular free heme level at 2.5 times IC50; format: functional, cell-based; parameters: scale not given: the % may be the effect or the level left
[6] = Cytotoxicity against CHO cells assessed as decrease in cell viability by MTT assay; format: toxicity, cell-based, Cricetulus griseus; settings: chinese hamster
Plasmodium falciparum [7] = assay: Antimalarial activity against chloroquine-sensitive Plasmodium falciparum D6 infected in human erythrocytes assessed as inhibition of beta-hematin formation by measuring increase in intracellular free heme level; format: functional, cell-based
[8] = Selectivity index, ratio of cytotoxic activity against CHO cells to IC50 for Plasmodium falciparum infected in human type O+ erythrocytes; format: toxicity, cell-based; settings: hamster, read-out: Selectivity Index
Plasmodium falciparum [9] = assay: Antimalarial activity against chloroquine-resistant asexual erythrocyte stage of Plasmodium falciparum K1 infected in human type O+ erythrocytes assessed as growth inhibition incubated for 48 hrs by NBT dye based LDH release assay; format: functional, cell-based; settings: K1, 48 h
[10] = Resistance index, ratio of IC50 for chloroquine-resistant asexual erythrocyte stage of Plasmodium falciparum K1 infected in human type O+ erythrocytes to IC50 for chloroquine-sensitive asexual erythrocyte stage of Plasmodium falciparum NF54 infected in human type O+ erythrocytes; format: functional
Plasmodium falciparum [11] = assay: Antimalarial activity against chloroquine-resistant asexual erythrocyte stage of Plasmodium falciparum K1 infected in human type O+ erythrocytes assessed as growth inhibition incubated for 72 hrs by NBT dye based LDH release assay; format: functional, cell-based; settings: K1, 72 h
Plasmodium falciparum [12] = assay: Antimalarial activity against chloroquine-sensitive asexual erythrocyte stage of Plasmodium falciparum NF54 infected in human type O+ erythrocytes assessed as decrease in DNA level by flow cytometry; format: functional, cell-based
Plasmodium falciparum [13] = assay: Antimalarial activity against chloroquine-sensitive asexual erythrocyte stage of Plasmodium falciparum NF54 infected in human type O+ erythrocytes assessed as smaller and less complex DNA by flow cytometry; format: functional, cell-based
Plasmodium falciparum [14] = assay: Antimalarial activity against chloroquine-sensitive asexual erythrocyte stage of Plasmodium falciparum NF54 infected in human type O+ erythrocytes assessed as pyknosis at 3 times IC50 by light microscopy; format: functional, cell-based

IC50 [1] [µM] | SMILES | IC50 (Plasmodium falciparum [2]) [µM] | IC50 (Plasmodium falciparum [3]) [µM] | also measured
2.4 | COc1cc(-c2nc(-c3ccccc3)c(-c3ccc(O)cc3)[nH]2)cc(OC)c1O | 0.7 |  | 
17.7 | Oc1ccc(-c2nc(-c3ccccc3)c(-c3ccccc3)[nH]2)cc1 |  | > 32 | 
5.6 | Oc1ccc(-c2nc(-c3ccccc3)c(-c3ccc(Br)cc3)[nH]2)cc1 | 9.06 |  | Activity (Plasmodium falciparum [4]): 43%
347 | Oc1ccc(-c2ncc[nH]2)cc1 |  | > 20 | 
315 | CCN(CC)CCCC(C)Nc1ccnc2cc(Cl)ccc12 (stereo not given) [CHLOROQUINE] |  |  | 
10 | COc1cc(OC)c(-c2nc(-c3ccsc3)c(-c3ccccc3)[nH]2)cc1OC | 11.7 |  | 
10.9 | COc1cc(-c2nc(-c3ccccc3)c(-c3ccccc3)[nH]2)cc(OC)c1OC |  | 3 | 
18.7 | CCOc1cc(-c2nc(-c3ccc(F)cc3)c(-c3ccc(F)cc3)[nH]2)ccc1O | 2.4 |  | 
> 1000 | c1ccc(-c2nc(-c3ccccc3)c(-c3ccccc3)[nH]2)cc1 | > 20 |  | 
25.4 | c1ccc(-c2nc(-c3ccncc3)[nH]c2-c2ccccc2)cc1 | 10.8 |  | 
12.7 | Brc1ccc2[nH]cc(-c3nc(-c4ccccc4)c(-c4ccccc4)[nH]3)c2c1 | 2.24 |  | 
19 | O=[N+]([O-])c1ccc(-c2nc(-c3ccccc3)c(-c3ccccc3)[nH]2)cc1 |  | 15 | Activity [6]: 149 µM; Activity (Plasmodium falciparum [7]): > 20 fg; selectivity ratio [8]: 7.8
6.2 | COc1cc(-c2nc(-c3ccc4c(c3)S(=O)(=O)c3ccccc3-4)c(-c3ccccc3)[nH]2)cc(OC)c1O | 0.61 |  | 
12.6 | COc1cc(-c2nc(-c3ccccc3)c(-c3ccc(Br)cc3)[nH]2)cc(OC)c1O | 0.31 |  | 
16.1 | Nc1ccc(-c2nc(-c3ccccc3)c(-c3ccccc3)[nH]2)cc1 |  | 42 | 
> 1000 | FC(F)(F)Oc1ccc(-c2nc(-c3ccccc3)c(-c3ccccc3)[nH]2)cc1 |  | 4.2 | Activity (Plasmodium falciparum [12]): Active; Activity (Plasmodium falciparum [13]): Active; Activity [6]: 29 µM; Activity (Plasmodium falciparum [14]): Active; selectivity ratio [8]: 6.9

SMILES | IC50 [1] [µM] | IC50 (Plasmodium falciparum [2]) [µM] | IC50 (Plasmodium falciparum [3]) [µM] | also measured
COc1ccc(-c2nc(-c3cc(OC)cc(OC)c3)[nH]c2-c2ccc(OC)cc2)cc1 | 13.8 |  | 1.7 | Activity (Plasmodium falciparum [5]): > 50%; Activity [6]: > 240 µM; Activity (Plasmodium falciparum [7]): Dose dependent effect; selectivity ratio [8]: > 141; IC50 (Plasmodium falciparum [9]): 1.8 µM; Ratio IC50 [10]: 1.1
COc1cc(-c2nc(-c3ccccc3)c(-c3ccccc3)[nH]2)cc(OC)c1O | 10.2 |  | 1.3 | IC50 (Plasmodium falciparum [9]): 1.9 µM; Ratio IC50 [10]: 1.5
COc1cc(OC)cc(-c2nc(-c3ccccc3)c(-c3ccc(Cl)cc3)[nH]2)c1 | 16.6 |  | 1.7 | IC50 (Plasmodium falciparum [9]): 2.7 µM; Ratio IC50 [10]: 1.6
c1ccc(-c2ncc[nH]2)cc1 [2-PHENYLIMIDAZOLE] | > 1000 |  |  | 
COc1cc(OC)cc(-c2nc(-c3ccccc3)c(-c3ccccc3)[nH]2)c1 | 14.6 |  | 7 | Activity (Plasmodium falciparum [5]): > 50%; Activity [6]: > 269 µM; IC50 (Plasmodium falciparum [11]): 4.7 µM; Activity (Plasmodium falciparum [7]): Dose dependent effect; selectivity ratio [8]: > 206; Ratio IC50 [10]: 0.7
